Test results as given in ChEMBL document CHEMBL1201862, “PubChem BioAssay data set” (2004).
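Cultured in 96-well plates, cells were exposed to test compound for 48 hours across five concentrations. GI50 = concentration required for 50% inhibition of growth.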 Active and inactive are the calls of the source. Cut-off read from the data, not from the text of the source: active = GI50 up to about 1.1 µM and inactive = higher.

What was measured:
Test in all cases: DTP human tumour cell line panel, 48 h
[1] = tested on: RPMI-8226
[2] = tested on: UACC-62
[3] = tested on: PC-3
[4] = tested on: SK-MEL-5
[5] = tested on: HCC 2998
[6] = tested on: SW-620
[7] = tested on: NCI-H226
[8] = tested on: Hs-578T
[9] = tested on: TK-10
[10] = tested on: EKVX
[11] = tested on: HOP-92
[12] = tested on: NCI-H23
[13] = tested on: UO-31
[14] = tested on: SF-268
[15] = tested on: SNB-19
[16] = tested on: U-251
[17] = tested on: SK-MEL-28
[18] = tested on: MOLT-4
[19] = tested on: CAKI-1
[20] = tested on: SK-OV-3

Compound	GI50 [1]	GI50 [2]	GI50 [3]	GI50 [4]	GI50 [5]	GI50 [6]	GI50 [7]	GI50 [8]	GI50 [9]	GI50 [10]	GI50 [11]	GI50 [12]	GI50 [13]	GI50 [14]	GI50 [15]	GI50 [16]	GI50 [17]	GI50 [18]	GI50 [19]	GI50 [20]
Nc1nc(O)c2c(n1)NCN(CCCN1CCOCC1)C2	> 100 µM (inactive)	> 100 µM (inactive)	> 100 µM (inactive)	> 100 µM (inactive)	> 100 µM (inactive)	> 100 µM (inactive)	> 100 µM (inactive)	> 100 µM (inactive)	> 100 µM (inactive)	> 100 µM (inactive)	> 100 µM (inactive)	> 100 µM (inactive)	> 100 µM (inactive)	> 100 µM (inactive)	> 100 µM (inactive)	> 100 µM (inactive)	> 100 µM (inactive)	46.7 µM (inactive)	> 100 µM (inactive)	–
CN(C)CCn1c(=O)c2ccc3c4c(nn3CCN(C)C)c3ccccc3n(c1=O)c24	–	0.564 µM (active)	0.351 µM (active)	0.728 µM (active)	0.129 µM (active)	< 0.138 µM (active)	0.506 µM (active)	0.526 µM (active)	0.578 µM (active)	< 0.0113 µM (active)	1.87 µM (inactive)	0.449 µM (active)	0.271 µM (active)	0.211 µM (active)	0.313 µM (active)	0.196 µM (active)	1.85 µM (inactive)	< 0.01 µM (active)	0.0608 µM (active)	0.412 µM (active)
Cc1cc(C)c2c(c1)CC1(Cc3c(C)cc(C)cc3C1=O)C2=O (centres undefined)	> 100 µM (inactive)	> 100 µM (inactive)	> 100 µM (inactive)	> 100 µM (inactive)	> 100 µM (inactive)	> 100 µM (inactive)	> 100 µM (inactive)	> 100 µM (inactive)	> 100 µM (inactive)	> 100 µM (inactive)	> 100 µM (inactive)	–	> 100 µM (inactive)	> 100 µM (inactive)	> 100 µM (inactive)	> 100 µM (inactive)	> 100 µM (inactive)	> 100 µM (inactive)	> 100 µM (inactive)	–
COC(=O)CNC(=O)CNC(=O)CSc1nnc(COc2ccc(Cl)cc2)n1-c1ccccc1	29.4 µM (inactive)	17.5 µM (inactive)	52.7 µM (inactive)	22.4 µM (inactive)	42 µM (inactive)	68.1 µM (inactive)	> 100 µM (inactive)	23.2 µM (inactive)	44.5 µM (inactive)	> 100 µM (inactive)	19.2 µM (inactive)	> 100 µM (inactive)	21.4 µM (inactive)	20.8 µM (inactive)	86.3 µM (inactive)	49.9 µM (inactive)	25.1 µM (inactive)	36.6 µM (inactive)	17.6 µM (inactive)	–
CN(C)CCNC(=O)c1cc(NC(=O)c2cc(NC(=O)CC/C=C3/[C@@H]4CC[C@H]3N=N4)cn2C)cn1C	> 100 µM (inactive)	–	> 100 µM (inactive)	> 100 µM (inactive)	> 100 µM (inactive)	> 100 µM (inactive)	> 100 µM (inactive)	> 100 µM (inactive)	> 100 µM (inactive)	> 100 µM (inactive)	> 100 µM (inactive)	> 100 µM (inactive)	> 100 µM (inactive)	> 100 µM (inactive)	> 100 µM (inactive)	> 100 µM (inactive)	> 100 µM (inactive)	> 100 µM (inactive)	> 100 µM (inactive)	–
COc1c(CC=C(C)C)c(O)c(C(CC(C)C)c2c(O)c3c(c(C(C)=O)c2O)OC(C(C)(C)O)C3)c(O)c1C(C)=O (centres undefined)	0.968 µM (active)	4.94 µM (inactive)	3.15 µM (inactive)	2.22 µM (inactive)	3.63 µM (inactive)	4.62 µM (inactive)	–	3.94 µM (inactive)	–	3.76 µM (inactive)	2.71 µM (inactive)	2.63 µM (inactive)	4.32 µM (inactive)	4.53 µM (inactive)	5.09 µM (inactive)	–	6.12 µM (inactive)	1.74 µM (inactive)	3.93 µM (inactive)	5.46 µM (inactive)
CCOP(=O)(OCC)/C(F)=C/c1ccccc1	> 100 µM (inactive)	> 100 µM (inactive)	> 100 µM (inactive)	> 100 µM (inactive)	> 100 µM (inactive)	> 100 µM (inactive)	–	> 100 µM (inactive)	> 100 µM (inactive)	> 100 µM (inactive)	> 100 µM (inactive)	> 100 µM (inactive)	95.9 µM (inactive)	> 100 µM (inactive)	> 100 µM (inactive)	> 100 µM (inactive)	> 100 µM (inactive)	> 100 µM (inactive)	> 100 µM (inactive)	> 100 µM (inactive)
